What all share (details): Compound concentration 10.0 uM
Assay [1] addresses 5-hydroxytryptamine receptor 1B (Homo sapiens) (UniProt P28222).
For assay [2], the target named is 5-hydroxytryptamine receptor 3A (Homo sapiens) (UniProt P46098).
Assay [3] addresses 5-hydroxytryptamine receptor 7 (Homo sapiens) (UniProt P34969).
The target of assay [4] is D(1A) dopamine receptor (Homo sapiens) (UniProt P21728).
Assay [5] addresses D(2) dopamine receptor (Homo sapiens) (UniProt P14416).
Assay [6] deals with D(4) dopamine receptor (Homo sapiens) (UniProt P21917).
In assay [7] the target is D(1B) dopamine receptor (Homo sapiens) (UniProt P21918).
Assay [8] addresses Sodium-dependent serotonin transporter (Homo sapiens) (UniProt P31645).
For assay [9], the target named is Mu-type opioid receptor (Homo sapiens) (UniProt P35372).
Assay [10] has as its target Delta-type opioid receptor (Homo sapiens) (UniProt P41143).
Assay [11] deals with T1, GABA-A receptor; anion channel (Rattus norvegicus) (UniProt O09028+P15431+P18506+P18508+P19969+P20236+P23574+P23576+P28471+P28473+P30191+P62813+P63079+P63138+Q91ZM7+Q9ES14).
The target of assay [12] is T2, Alpha-1A adrenergic receptor (Homo sapiens) (UniProt P35348).
T2 sequence (whole entry): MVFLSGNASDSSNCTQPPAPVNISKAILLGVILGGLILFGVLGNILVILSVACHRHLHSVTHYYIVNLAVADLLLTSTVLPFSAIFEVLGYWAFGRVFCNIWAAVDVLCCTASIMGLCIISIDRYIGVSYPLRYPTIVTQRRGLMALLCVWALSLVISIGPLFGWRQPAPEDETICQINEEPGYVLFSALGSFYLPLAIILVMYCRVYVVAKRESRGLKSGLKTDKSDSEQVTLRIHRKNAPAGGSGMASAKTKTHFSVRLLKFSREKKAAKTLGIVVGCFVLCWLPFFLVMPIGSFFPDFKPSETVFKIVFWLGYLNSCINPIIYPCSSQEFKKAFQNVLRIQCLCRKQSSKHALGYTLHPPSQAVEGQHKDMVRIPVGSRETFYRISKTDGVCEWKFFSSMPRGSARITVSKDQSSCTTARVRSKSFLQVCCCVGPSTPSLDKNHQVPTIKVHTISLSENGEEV

Assay [13] concerns the target T3, Alpha-2C adrenergic receptor (Homo sapiens) (UniProt P18825).
T3 sequence (whole entry): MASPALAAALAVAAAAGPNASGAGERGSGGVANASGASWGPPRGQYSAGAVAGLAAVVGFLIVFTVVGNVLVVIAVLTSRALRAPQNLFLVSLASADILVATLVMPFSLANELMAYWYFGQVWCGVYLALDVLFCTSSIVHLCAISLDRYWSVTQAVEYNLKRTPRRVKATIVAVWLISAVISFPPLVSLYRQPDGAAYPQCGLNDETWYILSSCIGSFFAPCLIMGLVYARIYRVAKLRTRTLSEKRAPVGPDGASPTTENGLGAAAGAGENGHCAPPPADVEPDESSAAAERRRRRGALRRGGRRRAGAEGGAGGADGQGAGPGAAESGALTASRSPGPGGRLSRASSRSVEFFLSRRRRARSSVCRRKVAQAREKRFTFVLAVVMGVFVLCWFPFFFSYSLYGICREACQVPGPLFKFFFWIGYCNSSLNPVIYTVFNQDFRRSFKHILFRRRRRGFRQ

Assay [14] has as its target Beta-1 adrenergic receptor (Homo sapiens) (UniProt P08588).
Assay [15] concerns the target Beta-2 adrenergic receptor (Homo sapiens) (UniProt P07550).
Assay [16] concerns the target T4, Muscarinic acetylcholine receptor M2 (Homo sapiens) (UniProt P08172).
T4 sequence (whole entry): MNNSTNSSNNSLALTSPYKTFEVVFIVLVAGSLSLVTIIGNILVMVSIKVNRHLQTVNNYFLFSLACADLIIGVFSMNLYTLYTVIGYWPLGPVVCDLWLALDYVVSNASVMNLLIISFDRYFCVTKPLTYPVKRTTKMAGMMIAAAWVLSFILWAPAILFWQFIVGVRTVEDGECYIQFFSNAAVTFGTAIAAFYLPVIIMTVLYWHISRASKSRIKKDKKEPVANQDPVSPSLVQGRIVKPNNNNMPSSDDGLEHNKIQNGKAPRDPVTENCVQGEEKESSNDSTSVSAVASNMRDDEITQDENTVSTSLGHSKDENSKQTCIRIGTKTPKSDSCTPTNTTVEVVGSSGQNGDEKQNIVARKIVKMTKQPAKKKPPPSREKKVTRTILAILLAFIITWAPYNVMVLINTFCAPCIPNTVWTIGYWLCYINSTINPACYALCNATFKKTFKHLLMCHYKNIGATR

Assay [17] deals with Muscarinic acetylcholine receptor M3 (Homo sapiens) (UniProt P20309).
The target in assay [18] is Muscarinic acetylcholine receptor M5 (Homo sapiens) (UniProt P08912).
In assay [19] the target is T1, GABA-A receptor; anion channel (Rattus norvegicus). The source holds these as a separate data set.
The target of assay [20] is Alpha-1D adrenergic receptor (Homo sapiens) (UniProt P25100).

Molecules are shown by their SMILES.

Chain of Muscarinic acetylcholine receptor M3 (Homo sapiens) (P20309 whole entry, looked up): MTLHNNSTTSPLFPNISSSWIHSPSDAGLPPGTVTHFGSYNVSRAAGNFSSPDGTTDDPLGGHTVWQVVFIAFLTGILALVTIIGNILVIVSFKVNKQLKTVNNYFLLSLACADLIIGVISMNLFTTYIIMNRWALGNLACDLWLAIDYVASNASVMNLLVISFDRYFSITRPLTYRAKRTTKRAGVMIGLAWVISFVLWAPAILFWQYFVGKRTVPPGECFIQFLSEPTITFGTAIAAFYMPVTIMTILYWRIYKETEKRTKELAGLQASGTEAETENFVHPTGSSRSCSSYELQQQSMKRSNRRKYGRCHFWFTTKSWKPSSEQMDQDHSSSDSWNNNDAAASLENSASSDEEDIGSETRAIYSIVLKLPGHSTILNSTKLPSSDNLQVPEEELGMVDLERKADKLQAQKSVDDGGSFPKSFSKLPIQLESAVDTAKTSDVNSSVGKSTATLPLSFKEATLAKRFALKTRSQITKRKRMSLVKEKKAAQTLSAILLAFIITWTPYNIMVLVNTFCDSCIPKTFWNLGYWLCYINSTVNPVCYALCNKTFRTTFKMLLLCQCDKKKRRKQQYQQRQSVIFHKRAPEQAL
Chain of Sodium-dependent serotonin transporter (Homo sapiens) (P31645 whole entry, looked up): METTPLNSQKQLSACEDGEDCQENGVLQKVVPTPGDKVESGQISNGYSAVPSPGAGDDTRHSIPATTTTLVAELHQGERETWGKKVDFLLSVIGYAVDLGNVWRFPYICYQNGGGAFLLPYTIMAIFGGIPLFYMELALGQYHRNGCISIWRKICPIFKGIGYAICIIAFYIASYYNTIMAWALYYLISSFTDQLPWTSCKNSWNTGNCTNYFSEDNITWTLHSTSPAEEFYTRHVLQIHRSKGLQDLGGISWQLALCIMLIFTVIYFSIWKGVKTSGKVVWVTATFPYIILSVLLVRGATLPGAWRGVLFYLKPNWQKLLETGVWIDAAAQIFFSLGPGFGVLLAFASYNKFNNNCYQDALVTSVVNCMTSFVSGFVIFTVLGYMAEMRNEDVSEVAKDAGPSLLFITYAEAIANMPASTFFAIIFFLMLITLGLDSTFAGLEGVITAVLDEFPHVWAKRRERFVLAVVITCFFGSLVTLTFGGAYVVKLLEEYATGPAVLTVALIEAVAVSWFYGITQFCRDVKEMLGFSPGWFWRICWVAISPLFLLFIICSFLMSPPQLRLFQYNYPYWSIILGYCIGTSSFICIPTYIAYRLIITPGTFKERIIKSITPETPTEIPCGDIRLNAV
Chain of Alpha-1D adrenergic receptor (Homo sapiens) (P25100 whole entry): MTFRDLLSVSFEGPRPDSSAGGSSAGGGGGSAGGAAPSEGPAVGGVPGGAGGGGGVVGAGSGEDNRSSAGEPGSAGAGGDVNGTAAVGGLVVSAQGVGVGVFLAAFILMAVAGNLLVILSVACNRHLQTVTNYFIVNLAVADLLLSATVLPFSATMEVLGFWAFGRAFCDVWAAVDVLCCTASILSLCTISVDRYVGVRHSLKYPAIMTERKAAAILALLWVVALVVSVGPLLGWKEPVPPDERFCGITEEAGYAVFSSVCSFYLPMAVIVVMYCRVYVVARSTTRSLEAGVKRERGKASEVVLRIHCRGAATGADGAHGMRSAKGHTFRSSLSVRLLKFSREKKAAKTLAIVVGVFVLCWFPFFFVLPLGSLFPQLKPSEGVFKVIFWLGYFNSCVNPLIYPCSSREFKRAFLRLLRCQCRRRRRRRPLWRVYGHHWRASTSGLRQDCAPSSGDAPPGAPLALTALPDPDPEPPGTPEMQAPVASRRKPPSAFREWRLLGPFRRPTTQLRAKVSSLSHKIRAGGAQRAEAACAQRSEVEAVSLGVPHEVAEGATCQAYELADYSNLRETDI
Chain of Delta-type opioid receptor (Homo sapiens) (P41143 whole entry): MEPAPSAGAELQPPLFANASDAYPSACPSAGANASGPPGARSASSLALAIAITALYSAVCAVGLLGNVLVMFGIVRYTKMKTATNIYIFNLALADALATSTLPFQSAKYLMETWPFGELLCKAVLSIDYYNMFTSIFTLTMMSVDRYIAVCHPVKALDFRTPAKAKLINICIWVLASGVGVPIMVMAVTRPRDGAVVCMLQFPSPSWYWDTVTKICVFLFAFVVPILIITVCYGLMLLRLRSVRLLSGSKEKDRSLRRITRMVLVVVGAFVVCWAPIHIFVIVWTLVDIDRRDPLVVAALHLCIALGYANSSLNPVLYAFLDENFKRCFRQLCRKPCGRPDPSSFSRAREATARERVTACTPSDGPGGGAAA
Chain of 5-hydroxytryptamine receptor 1B (Homo sapiens) (P28222 whole entry): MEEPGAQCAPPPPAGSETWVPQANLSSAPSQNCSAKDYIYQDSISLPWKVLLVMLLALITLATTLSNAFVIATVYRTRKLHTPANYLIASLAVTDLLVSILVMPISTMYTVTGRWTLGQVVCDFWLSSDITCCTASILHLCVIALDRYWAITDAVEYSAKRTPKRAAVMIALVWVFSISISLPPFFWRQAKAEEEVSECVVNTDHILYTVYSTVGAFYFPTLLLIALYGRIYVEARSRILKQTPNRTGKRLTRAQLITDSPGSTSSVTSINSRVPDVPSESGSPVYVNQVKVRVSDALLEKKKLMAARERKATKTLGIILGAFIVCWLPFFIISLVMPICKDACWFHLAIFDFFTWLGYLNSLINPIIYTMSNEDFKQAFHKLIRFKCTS
Chain of 5-hydroxytryptamine receptor 7 (Homo sapiens) (P34969 whole entry): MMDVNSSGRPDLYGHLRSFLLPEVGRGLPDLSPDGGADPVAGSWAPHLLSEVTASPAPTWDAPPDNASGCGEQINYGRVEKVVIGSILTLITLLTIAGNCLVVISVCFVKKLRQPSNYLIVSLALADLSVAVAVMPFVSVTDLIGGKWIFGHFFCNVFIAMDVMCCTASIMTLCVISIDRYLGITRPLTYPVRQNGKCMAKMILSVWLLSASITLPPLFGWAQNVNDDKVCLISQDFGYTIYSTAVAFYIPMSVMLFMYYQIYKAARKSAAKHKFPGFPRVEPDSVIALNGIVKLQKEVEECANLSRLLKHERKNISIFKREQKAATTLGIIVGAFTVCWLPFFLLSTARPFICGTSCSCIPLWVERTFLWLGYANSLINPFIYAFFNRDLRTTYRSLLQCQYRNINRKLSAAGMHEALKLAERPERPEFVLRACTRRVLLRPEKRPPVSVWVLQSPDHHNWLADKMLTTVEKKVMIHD
Chain of D(1A) dopamine receptor (Homo sapiens) (P21728 whole entry): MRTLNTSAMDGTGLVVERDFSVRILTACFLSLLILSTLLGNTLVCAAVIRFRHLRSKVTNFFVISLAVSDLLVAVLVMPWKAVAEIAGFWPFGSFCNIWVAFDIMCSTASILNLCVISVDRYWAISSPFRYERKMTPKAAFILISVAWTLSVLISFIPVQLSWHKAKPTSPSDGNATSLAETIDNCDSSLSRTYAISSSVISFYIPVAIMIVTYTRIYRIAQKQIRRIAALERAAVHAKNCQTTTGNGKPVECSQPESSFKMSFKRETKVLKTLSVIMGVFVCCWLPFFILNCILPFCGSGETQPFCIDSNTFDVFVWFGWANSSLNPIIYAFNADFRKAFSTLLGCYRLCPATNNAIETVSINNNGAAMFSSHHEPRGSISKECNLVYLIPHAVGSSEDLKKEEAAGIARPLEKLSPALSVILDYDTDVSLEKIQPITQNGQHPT
Chain of D(1B) dopamine receptor (Homo sapiens) (P21918 whole entry): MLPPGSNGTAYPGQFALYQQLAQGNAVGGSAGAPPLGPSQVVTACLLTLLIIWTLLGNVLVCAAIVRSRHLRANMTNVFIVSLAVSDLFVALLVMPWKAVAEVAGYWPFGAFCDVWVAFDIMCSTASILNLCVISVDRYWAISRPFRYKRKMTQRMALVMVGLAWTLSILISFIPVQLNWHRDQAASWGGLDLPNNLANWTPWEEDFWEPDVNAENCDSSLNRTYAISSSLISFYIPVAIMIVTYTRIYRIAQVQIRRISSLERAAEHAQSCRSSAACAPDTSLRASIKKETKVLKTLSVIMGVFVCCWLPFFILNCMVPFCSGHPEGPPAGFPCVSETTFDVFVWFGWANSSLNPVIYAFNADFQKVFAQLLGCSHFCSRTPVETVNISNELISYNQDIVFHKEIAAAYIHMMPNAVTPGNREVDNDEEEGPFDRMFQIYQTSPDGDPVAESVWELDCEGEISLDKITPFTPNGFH
Chain of Beta-2 adrenergic receptor (Homo sapiens) (P07550 whole entry, looked up): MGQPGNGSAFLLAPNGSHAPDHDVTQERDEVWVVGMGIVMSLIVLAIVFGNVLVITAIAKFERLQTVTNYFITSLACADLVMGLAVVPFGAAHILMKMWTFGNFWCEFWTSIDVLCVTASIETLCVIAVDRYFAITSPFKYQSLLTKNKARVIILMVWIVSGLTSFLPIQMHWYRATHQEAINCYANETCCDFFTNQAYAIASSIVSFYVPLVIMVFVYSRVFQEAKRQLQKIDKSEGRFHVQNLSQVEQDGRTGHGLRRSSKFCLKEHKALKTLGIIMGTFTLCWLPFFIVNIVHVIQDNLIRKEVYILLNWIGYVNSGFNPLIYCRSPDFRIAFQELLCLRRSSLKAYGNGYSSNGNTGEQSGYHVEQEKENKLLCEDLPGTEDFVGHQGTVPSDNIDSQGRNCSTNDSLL
Chain of 5-hydroxytryptamine receptor 3A (Homo sapiens) (P46098 whole entry): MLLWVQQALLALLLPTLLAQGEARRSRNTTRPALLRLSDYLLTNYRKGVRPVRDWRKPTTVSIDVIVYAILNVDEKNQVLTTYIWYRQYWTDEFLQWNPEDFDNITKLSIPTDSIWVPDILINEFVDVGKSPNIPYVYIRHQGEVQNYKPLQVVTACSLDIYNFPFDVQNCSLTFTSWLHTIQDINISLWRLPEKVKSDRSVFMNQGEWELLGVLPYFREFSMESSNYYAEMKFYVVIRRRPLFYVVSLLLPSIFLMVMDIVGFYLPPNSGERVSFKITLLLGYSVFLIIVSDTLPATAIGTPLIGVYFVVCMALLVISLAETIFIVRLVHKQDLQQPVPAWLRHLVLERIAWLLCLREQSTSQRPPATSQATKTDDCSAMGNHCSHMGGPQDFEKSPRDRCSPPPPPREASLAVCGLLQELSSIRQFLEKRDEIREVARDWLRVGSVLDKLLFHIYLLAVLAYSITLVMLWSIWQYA

For `Cc1c(N2CCNCC2)nc2ccc(Br)cc2c1C(=O)NC[C@H](CCC(=O)O)c1ccccc1Cl` [BAY-403], the inhibition in assay [1] was 15.2%; in [2], 86%; in assay [3] it was 13%; in assay [4] it was 31.6%; in [5], 2.75%; in assay [6], 5.89%. Moreover, the inhibition in assay [7] was 5.3%; in assay [8] it was 5.34%; in [9], 40.9%; in assay [10], 36%; in assay [11] it was -0.16%; in assay [12], 23.3%. In addition, the inhibition in [13] is 5.7%; in assay [14], 12.6%; in assay [15], 18.4%; in assay [16], 13.8%; in [17], 13.7%; in assay [18], -0.13%. Further, the inhibition in assay [19] is 38.3%; in assay [20] it was 16%.
Regarding `Cc1c(N2CCCC2)nc2ccc(Br)cc2c1C(=O)NC[C@H](CCC(=O)O)c1ccccc1Cl` [BAY-6672], the inhibition in [1] was -2.2%; in assay [2], 37.7%; in assay [3] it was 0.4%; in assay [4], 13.8%; in [5] it was 9.71%; in [6], 1.48%. Also, the inhibition was 25% in assay [7]; -7.59% in [8]; 11.7% in assay [9]; 15.4% in assay [10]; 8.16% in assay [11]; 1.72% in assay [12]. For the same compound, the inhibition in [13] was 16.1%; in assay [14], 15.7%; in assay [15] it was 19.9%; in assay [16], 14.6%; in [17], -0.57%; in [18] it was 9.92%. Further, the inhibition in assay [19] is 5.06%; in assay [20], 3.44%.

As usually defined, the inhibition is the relative decrease from the control value, in per cent.

Source of the values: ChEMBL document CHEMBL4630901 (2021).
